Peptide text beside a SMILES is read from it.
Tests used:
[1] = target: T1, μ opioid receptor (Rattus norvegicus, UniProt P33535); experiment: μ opioid receptor binding assay, displacement of [3H]DAMGO from rat brain membranes
T1 construct: from tissue; host or cells: rat brain (without cerebellum) membranes, Sprague-Dawley
Excerpt: (§1) In the case of κ-ligands guinea pig brain homogenates were used, since the relative proportion of κ-binding sites is higher in guinea pig brain than in rat brain. The experimental procedure being used in our laboratory represents a modified version of the binding assay described by Pastemak et al. (Mol. Pharmacol. 11,340-351, (1975)). Male Sprague-Dawley rats (300-350 g) from the Canadian Breeding Laboratories were decapitated and after removal of the cerebellum the brains were homogenized in 30 volumes of ice-cold standard buffer (50 mM Tris-HCl, pH 7.7). After centrifugation at 30,000×g for 30 min at 4° C. the membranes were reconstituted in the original volume of standard buffer and incubated for 30 min at 37° C. (to release bound endogenous ligands). […] The incubation was terminated by filtration through Whatman GF/B filters under vacuum at 4° C. Following two washings with 5 ml portions of ice-cold standard buffer the filters were transferred to scintillation vials and treated with 1 ml Protosol (New England Nuclear) for 30 min prior to the addition of 0.5 ml acetic acid and 10 ml Aquasol (New England Nuclear). After shaking for 30 min the vials were counted at an efficiency of 40-45%. All experiments were performed in duplicates and repeated at least three times. […] Values of half-maximal inhibition (IC50) of specific binding were obtained graphically from semilogarithmic plots.

[2] = target: T2, δ opioid receptor (Rattus norvegicus, UniProt P33533); experiment: δ opioid receptor binding assay, displacement of δ-selective radioligand from rat brain membranes; details: for Ki^μ /Ki^δ (δ-selectivity): ratio of μ and δ binding constants
T2 construct: from tissue; host or cells: rat brain (without cerebellum) membranes, Sprague-Dawley
Excerpt: as §1

[3] = target: T3, μ opioid receptors (Cavia porcellus, UniProt P97266); details: literature value, Portoghese J. Med. Chem. 34, 1757 (1991); cited from earlier work
[4] = target: T4, δ opioid receptors (Mus musculus, UniProt P32300); experiment: MVD assay: antagonism of δ agonist inhibition of electrically evoked contractions of the mouse vas deferens; details: comparison with the patent's best compounds
T4 construct: electrically evoked contractions of the mouse vas deferens (MVD); from tissue; host or cells: isolated mouse vas deferens
Excerpt: Biosassys based on inhibition of electrically evoked contractions of the mouse vas deferens (MVD) and of the guinea pig ileum (GPI). In the GPI assay the opioid effect is primarily mediated by μ opioid receptors, whereas in the MVD assay the inhibition of the contractions is mostly due to interaction with δ opioid receptors. Antagonist potencies in these assays are expressed as so-called Ke -values (H. W. Kosterlitz & A. J. Watt, Br. J. Pharmacol. 33, 266-276 (1968)).
The GPI and MVD bioassays were carried out as reported in P. W. Schiller et al Biochem. Biophys. Res. Commun 85, 1332-1338 (1978) and J. DiMaio et al, J. Med. Chem 25 1432-1438 (1982). A log dose-response curve was determind with [Leu^5 ]enkephalin as standard for each ileum and vas preparation, and IC50 values of the compounds being tested were normalized according to A. A Waterfield et al Eur. J. Pharmacod 58, 11-18 (1979). Ke values for the TIPP-related antagonists were determind from the ratio of IC50 values (DR) obtained in the presence and absence of a fixed antagonist concentration (a) (Ke =a/(DR-1) H. W. Kosterlitz & A. J. Watt, Br. J. Pharmacol. 33, 266-276 (1968). These determinations were made with the MVD assay, using three different δ -selective agonists ([Leu^5 ] enkephalin, DPDPE and [D-Ala^2 ]deltorphin I.

[5] = target: T3, μ opioid receptors; experiment: GPI assay: inhibition of electrically evoked contractions of the guinea pig ileum; details: read-out: IC50 (μ agonist potency) in the GPI assay
Excerpt: In the GPI assay the opioid effect is primarily mediated by μ opioid receptors, whereas in the MVD assay the inhibition of the contractions is mostly due to interaction with δ opioid receptors.

T2 sequence (P33533 whole entry): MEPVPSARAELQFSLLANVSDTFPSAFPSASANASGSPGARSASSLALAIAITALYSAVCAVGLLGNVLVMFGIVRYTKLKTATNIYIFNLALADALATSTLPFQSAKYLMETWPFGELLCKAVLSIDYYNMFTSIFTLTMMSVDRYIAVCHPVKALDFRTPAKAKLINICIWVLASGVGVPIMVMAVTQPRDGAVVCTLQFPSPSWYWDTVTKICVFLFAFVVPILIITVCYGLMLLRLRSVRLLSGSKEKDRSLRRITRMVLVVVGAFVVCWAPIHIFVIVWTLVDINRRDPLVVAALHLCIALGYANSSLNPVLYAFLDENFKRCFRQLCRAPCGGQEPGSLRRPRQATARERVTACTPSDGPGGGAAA
T1 sequence (P33535 whole entry): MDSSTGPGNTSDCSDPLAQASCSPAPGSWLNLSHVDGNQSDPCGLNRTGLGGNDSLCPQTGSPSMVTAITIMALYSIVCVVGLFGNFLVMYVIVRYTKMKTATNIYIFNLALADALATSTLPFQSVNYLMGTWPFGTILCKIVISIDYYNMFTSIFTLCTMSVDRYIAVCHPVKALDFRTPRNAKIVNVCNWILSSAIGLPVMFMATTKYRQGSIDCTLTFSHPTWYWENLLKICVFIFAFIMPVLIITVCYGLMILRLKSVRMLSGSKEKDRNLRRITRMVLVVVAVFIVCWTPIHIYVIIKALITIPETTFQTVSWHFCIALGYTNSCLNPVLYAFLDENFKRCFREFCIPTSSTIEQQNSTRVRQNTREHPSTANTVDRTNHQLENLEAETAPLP
T3 sequence (P97266 whole entry, looked up): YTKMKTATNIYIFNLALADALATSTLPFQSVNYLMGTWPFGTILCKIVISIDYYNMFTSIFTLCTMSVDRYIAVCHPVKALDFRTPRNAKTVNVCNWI
T4 sequence (P32300 whole entry): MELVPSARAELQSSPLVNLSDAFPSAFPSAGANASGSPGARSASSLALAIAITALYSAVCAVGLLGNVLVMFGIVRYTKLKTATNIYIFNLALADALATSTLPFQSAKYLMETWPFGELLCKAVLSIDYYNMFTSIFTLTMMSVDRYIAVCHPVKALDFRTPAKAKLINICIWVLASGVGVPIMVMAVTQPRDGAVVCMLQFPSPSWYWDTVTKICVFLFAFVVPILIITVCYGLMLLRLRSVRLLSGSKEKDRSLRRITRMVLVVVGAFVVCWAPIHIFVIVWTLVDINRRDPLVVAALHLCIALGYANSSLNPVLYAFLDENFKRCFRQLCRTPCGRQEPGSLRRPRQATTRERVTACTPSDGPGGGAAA

| Structure (SMILES) | Ki [1] | Ki [2] | Ki^μ /Ki^δ (δ-selectivity) [2] | Ke (antagonist properties) in the guinea pig ileum (GPI) assay [3] | antagonist potency in the MVD assay compared with the most potent and selective δ antagonists of the patent [4] | δ-selectivity compared with the most potent and selective δ antagonists of the patent ([2]; comparison with the patent's best compounds) | IC50 [5] |
| --- | --- | --- | --- | --- | --- | --- | --- |
| N[C@@H](Cc1ccc(O)cc1)C(=O)N1Cc2ccccc2C[C@H]1C(=O)N[C@@H](Cc1c[nH]c2ccccc12)C(=O)N[C@@H](Cc1ccccc1)C(=O)O [H--Tyr--Tic--Trp--Phe--OH] (HELM PEPTIDE1{Y.[Tic].W.F}$$$$V2.0) | 1790 ± 380 nM | 0.301 ± 0.042 nM | 5950 | – | – | – | – |
| NC(=O)[C@H](Cc1ccccc1)NC(=O)[C@@H]1Cc2ccccc2CN1C(=O)[C@@H](N)Cc1ccc(O)cc1 [H--Tyr--Tic--Phe--NH2] (HELM PEPTIDE1{Y.[Tic].F.[am]}$$$$V2.0) | 624 ± 79 nM | 12 ± 1.3 nM | 52.0 | – | – | – | – |
| Oc1ccc2c3c1O[C@H]1c4[nH]c5ccccc5c4C[C@@]4(O)[C@@H](C2)N(CC2CC2)CC[C@]314 [Naltrindole, naltrindole, reference compound] | – | 0.687 ± 0.1 nM | – | 29 nM | – | – | – |
| N[C@@H](Cc1ccc(O)cc1)C(=O)N1Cc2ccccc2C[C@H]1C(=O)N[C@@H](Cc1ccccc1)C(=O)O [H--Tyr--Tic--Phe--OH] (HELM PEPTIDE1{Y.[Tic].F}$$$$V2.0) | – | – | 141 | – | – | – | – |
| N[C@@H](Cc1ccc(O)cc1)C(=O)N1Cc2ccccc2C[C@H]1C(=O)N[C@@H](Cc1c[nH]c2ccccc12)C(=O)N[C@@H](Cc1ccc([N+](=O)[O-])cc1)C(=O)O [H--Tyr--Tic--Trp--Phe(p-NO2)--OH] (HELM PEPTIDE1{Y.[Tic].W.[O=C(O)[C@H](Cc1ccc([N+](=O)[O-])cc1)N[*:1]]}$$$$V2.0) | 1520 ± 42 nM | 0.33 ± 0.004 nM | 4610 | – | – | – | – |
| NC(=O)[C@H](Cc1ccccc1)NC(=O)[C@H](Cc1c[nH]c2ccccc12)NC(=O)[C@@H]1Cc2ccccc2CN1C(=O)[C@@H](N)Cc1ccc(O)cc1 [H--Tyr--Tic--Trp--Phe--NH2] (HELM PEPTIDE1{Y.[Tic].W.F.[am]}$$$$V2.0) | 176 ± 21 nM | 0.248 ± 0.009 nM | 709 | – | – | – | – |
| NC(=O)[C@H](Cc1c[nH]c2ccccc12)NC(=O)[C@H](Cc1ccccc1)NC(=O)[C@@H]1Cc2ccccc2CN1C(=O)[C@@H](N)Cc1ccc(O)cc1 [H--Tyr--Tic--Phe--Trp--NH2] (HELM PEPTIDE1{Y.[Tic].F.W.[am]}$$$$V2.0) | 312 ± 75 nM | 1.21 ± 0.19 nM | 258 | – | – | – | – |
| N[C@@H](Cc1ccc(O)cc1)C(=O)N1Cc2ccccc2C[C@H]1C(=O)N[C@@H](Cc1ccccc1)C(=O)N[C@@H](Cc1ccc([N+](=O)[O-])cc1)C(=O)O [H--Tyr--Tic--Phe--Phe(p-NO2)--OH] (HELM PEPTIDE1{Y.[Tic].F.[O=C(O)[C@H](Cc1ccc([N+](=O)[O-])cc1)N[*:1]]}$$$$V2.0) | 2890 ± 660 nM | 0.703 ± 0.099 nM | 4110 | – | – | – | – |
| C=CCN(CC=C)[C@@H](Cc1ccc(O)cc1)C(=O)NC(C)(C)C(=O)NC(C)(C)C(=O)N[C@@H](Cc1ccccc1)C(=O)N[C@@H](CC(C)C)C(=O)O [ICI 174864, N,N--diallyl--Tyr--Aib--Aib--Phe--Leu--OH, reference compound] (HELM PEPTIDE1{[C=CCN(CC=C)[C@@H](Cc1ccc(O)cc1)C(=O)[*:2]].[Aib].[Aib].F.L}$$$$V2.0) | – | – | – | – | 20 times less potent | 40 times less | – |
| NC(=O)[C@H](Cc1ccccc1)NC(=O)[C@H](Cc1ccccc1)NC(=O)[C@@H]1Cc2ccccc2CN1C(=O)[C@@H](N)Cc1ccc(O)cc1 [H--Tyr--Tic--Phe--Phe--NH2] (HELM PEPTIDE1{Y.[Tic].F.F.[am]}$$$$V2.0) | – | – | 26.3 | – | – | – | 1700 ± 220 nM |

Source: patent US5455230A, “Delta opioid receptor antagonists and their use as analgesic agents” (Aktiebolaget Astra, priority 1993, dated 1995)
